# Assay results as given in patent US8217068B2, “Compound with anesthetics activity, methods for its production and pharmaceutical compositions comprising the same” (Universidade Federal de Pernambuco—UFPE, priority 2007, dated 2012).
# Columns and labels:
# Type in all cases: in vivo
# Wistar male rats [1] = assay: Activity on cardiovascular system: blood pressure and EKG recording in awake animals; settings: 10 mg/kg single dose through external jugular vein
# Protocol: Hypotension and reduction of heart rate are the major concern of alpha-2 adrenoceptor agonist as clonidine. These effects are justified by decreasing the central nervous system sympathetic outflow due to activation of alpha-2 adrenoceptor. With the aim to investigate if LPSF-PT-31, GIRSUPAN could cross the brain barrier and reduces the hemodynamic response, Wistar male rats weighing 230-280 grams were prepared for blood pressure and electrocardiogram (EKG) recording. The heart rate was estimated by analysis of EKG. LPSF-PT-31, GIRSUPAN (10 mg/kg) was injected trough external jugular vein in a single dose in awaked animals. The blood pressure and the heart rate were not changed showing that LPSF-PT-31, GIRSUPAN is a stable compound for the cardiovascular system differently that occurs with clonidine.
# male Swiss mice [2] = assay: Sedative activity by measuring motor activity (Motor Activity Monitor)
# Protocol: The sedative activity of 3-(2-chloro-6-fluoro-benzyl)-imidazolidine-2,4-dione LPSF-PT-31, GIRSUPAN was investigated in male Swiss mice weighting 18-24 grams by measuring the motor activity (Motor Activity Monitor, Letica LE 8811). In this equipment the animals are positioned in an open square field and a set of invisible beans cross the field. The interruption of the beans was used to quantify the motor activity. After a period of adaptation the motor activity of the animals was measured during 20 min.
# Decrease of motor activity represents reduction of brain activity and this observation is useful to investigate the effect of drug with sedative, hipnotic, anxyolitic and general anesthetic properties (Bioorg. Med. Chem. 2006, 14:632-640). Thus, measurement of motor activity is not a method to identify a specific group of pharmacological class.
# male Swiss mice [3] = assay: Isobolographic analysis of the combination with morphine (analgesic effect, DE50); settings: i.p., combination of fractions of DE50 of each drug, FIG. 3
# Protocol: First, we determined the dose of morphine that cause 50% of maximal analgesic effect (DE50) after administration (i.p.) in incremental doses. […] Fraction of association of DE50 of each drug was administrated and the DE50 of combination was determined. A isobolographic analysis (FIG. 3) using the DE50 of each drug and of the combination was performed using a computer program (Life Sci 1989 45: 947-961) to determine the type of interaction.
# male Swiss mice [4] = assay: Hot Plate Test, analgesic activity (% AA) after i.p. administration
# Protocol: The activity of several compounds with action in central nervous system as opioids, which the main drug is morphine, and the alpha-2 adrenoceptor agonist as clonidine have been identified by this method.
# The analgesic activity of LPSF-PT-31, GIRSUPAN was investigated in male Swiss mice weighting 18-24 grams using the Hot Plate Test method (Brain Res. 1983, 245-252). The animals were positioned on a hot plate stabilized at 52° C. using the equipment Analgesic Meter-Letica LE 7406. When the pain threshold was achieved the animals raised and licked the front paw to cool down the temperature. The time between positioning the animals on the plate and lick the paw was the latency of the pain reaction. The maximal time (cut-off) allowed to the animals staying on the hot plate was three times the latency time measured on the control. The cut-off was very important to avoid skin damage of the paw.
# The analgesic effect of the tested compounds was converted to a unit denominated analgesic activity (% AA) (Brain Res. 1983, 245-252) calculated by equation % AA=((post-drug latency)−(control latency))/((cut off)−(control latency))×100. The experimental protocol used to test the analgesic effect of the compound LPSF-PT-31, GIRSUPAN, consisted to measure the AA in the control condition (before drug administration) and after (i.p.) intraperitoneal administration of increasing dose (1, 5, 10 and 15 mg·kg^−1).
# In another experimental group, dimethyl sulfoxide used as vehicle for diluting LPSF-PT-31, GIRSUPAN, was i.p. administered at same volume used for the tested drug. The AA was measured until complete recovery to the control condition.
# Wistar male rats [5] = assay: Hot Plate analgesic effect after intrathecal administration
# Protocol: Stimulation of alpha-2 adrenoceptors distributed at spinal cord cause analgesia. […] Thus, the analgesic activity of LPSF-PT-31, GIRSUPAN was investigated after intrathecal administration. Wistar male rats weighting 240-280 grams were positioned in abdominal under light general anesthesia with sevoflurane. Puncture between L4-L5 was performed with low diameter needle (29 G) and LPSF-PT-31, GIRSUPAN was injected at dose of 20, 40, 80 or 160 μg diluted in constant volume of 50 μl. Sevoflurane was the elected anesthetic due to low blood solubility causing a fast induction and recovery of anesthesia.
# Thus, the animals were completely recovered few minutes after punction and injection LPSF-PT-31, GIRSUPAN and AA activity started to measure from 10 minutes. […] The maximal analgesic effect measured by Hot Plate was ca. 40% sustained by 180 minutes. This intensity of analgesic effect is observed with alpha-2 adrenoceptor agonist as clonidine.
smiles,measurement,setting,value
"O=C1CNC(=O)N1Cc1c(F)cccc1Cl [LPSF-PT-31, 3-(2-chloro-6-fluoro-benzyl)-imidazolidine-2,4-dione]",blood pressure,Wistar male rats [1],not changed
same,heart rate (estimated by analysis of EKG),Wistar male rats [1],not changed
same,reduction of motor activity,"male Swiss mice [2]; 10 mg·kg^−1, motor activity measured during 20 min, FIG. 5",ca. 80%
same,intensity of motor activity reduction versus positive control,"male Swiss mice [2]; 10 mg·kg^−1, positive control midazolam, FIG. 5",comparable to midazolam
same,reversal of decrease of motor activity by yohimbine,male Swiss mice [2]; yohimbine,completely reversed
same,type of interaction with morphine (isobolographic analysis of DE50),male Swiss mice [3],strong synergic interaction
same,maximal effect (% AA),male Swiss mice [4]; 15 mg·kg^−1 i.p.,about 80 % AA
same,duration of plateau of analgesic effect,male Swiss mice [4]; i.p.,40 to 50 min
same,time of peak of analgesic effect,male Swiss mice [4]; i.p.,approximately 20 min
same,time to complete recovery from the analgesic effect,male Swiss mice [4]; i.p.,100 to 120 min
same,effect on % AA (analgesic activity),"male Swiss mice [4]; i.p. 1, 5, 10 and 15 mg·kg^−1, hot plate 52° C., FIG. 1",increased the % AA in a dose-dependent manner
same,reversal of analgesic effect by naloxone (antagonist of opioid receptor),male Swiss mice [4]; naloxone 1 mg·kg^−1 i.p.,partially reversed
same,reversal of analgesic effect by flumazenil (antagonist of benzodiazepine receptor),male Swiss mice [4]; previous treatment with flumazenil 0.3 mg·kg^−1,not reversed
same,reversal of analgesic effect by yohimbine (antagonist of alpha-2 adrenoceptor),"male Swiss mice [4]; yohimbine 5 mg·kg^−1 i.p., compound 10 mg·kg^−1, FIG. 2",completely reversed
same,duration of maximal analgesic effect,Wistar male rats [5]; intrathecal,180 min
same,maximal analgesic effect measured by Hot Plate,Wistar male rats [5]; intrathecal,ca. 40%
same,effect on pain reaction after intrathecal administration,"Wistar male rats [5]; intrathecal 20, 40, 80 or 160 μg in 50 μl, FIG. 4",reduces the pain reaction after intrathecal administration in a dose-dependent manner
